How the values were obtained:
[1] = Geller-Seifter procedure (anxiolytic conflict test in rats); assay type: in vivo; conditions: Rattus norvegicus, po, 1 h, 60 min before testing, read-out: increase in responding in the `conflict` session (percentage increase in square root of total lever presses in FR5); for change in vivo at 20 mg/kg: 20 mg/kg p.o.
Description: Potential anxiolytic properties have been evaluated using the Geller-Seifter procedure based on that originally described by Geller and Seifter (1960) Psychopharmacologia, 1, 482-492.
Rats are trained on a variable interval 30 sec schedule (VI30) to press a lever in order to obtain food reward. The 3 min sessions of the VI30 schedule alternate with 3 min of a schedule (FR5) in which every 5th lever press is followed by a presentation of a food pellet paired with a 0.2 sec mild footshock. The amplitude of the shock is adjusted for each rat to give equivalent response rates. The total study consists of VI and FR components and lasts 30 mins. Rats typically respond with high rates of lever pressing under the VI30 schedule and low response rats under the FR5 `conflict` session. Anxiolytic drugs increase the suppressed response rates of rats in `conflict` sessions.
The compound is administered intraperitoneally or orally to groups of 6-16 rats 30 min (intraperitoneal route) or 60 min (oral route) before testing.
The results are expressed as the percentage increase in square root of the total number of lever presses in the FR5 `conflict` sessions. Square root transformation is necessary to normalise the data for statistical analysis using parametric methods. A change in the square root of the VI can indicate non-specific drug effects i.e. stimulation or sedation.

[2] = target: site on or near the Cl^- channel portion of the GABAA /BDZ/Cl^- channel complex; test: [^35 S]-TBPS binding to rat cerebral cortex membranes in vitro; conditions: 2 nM [^35 S]-TBPS, pH 7.1, 25° C.
Description: [^35 S]-TBPS binding to rat cerebral cortex membranes in vitro
[^35 S]-TBPS labels a site on or near the Cl^- channel portion of the GABAA /BDZ/Cl^- channel complex. Literature studies have shown that [^35 S]-TBPS binding is directly related to the permeability of the Cl^- channel (e.g. Concas et al, 1988).
Modulation of [^35 S]-TBPS binding is measured by a method similar to that of Gee et al (1986).
Pooled rat cerebral cortices were homogenised in 20 volumes of 0.32M sucrose and centrifuged at 1000 g for 20 minutes (4° C.). The supernatant was removed and recentrifuged at 50,000 g (4° C., 20 mins). The P2 pellet was then suspended in 20 volumes of Tris citrate buffer (pH 7.1) and centrifuged at 50,000 g (4° C., 20 mins). This washing step was repeated three times and the pellet finally resuspended in 20 volumes of buffer and stored at -70° C. prior to use.
[…] Non-specific binding was measured in the presence of 10^-4 M picrotoxin. Varying concentrations of test drugs 10^-7, 10^-6, 10^-5 and 10^-4 M final concentration)were added in a volume of 50 μl. The total assay volume was 500 μl. Incubation was stopped by rapid filtration using a Skatron cell harvester and radioactivity measured by liquid scintillation spectrometry. IC50 's were calculated as the concentration of test drug to inhibit 50% of specific binding. Concas A. et al, (1988) J. Neurochem. 51(6), 1868-1876. Gee K. W. et al, (1986) Mol. Pharmacol. 30, 218-225.

Question: For CC1CC(=O)c2c(nc3c(c2N)c2ccccc2n3C)C1 (racemic) [Example E10, (±) 11-Amino-3,6-dimethyl-1,2,3,4-tetrahydro-6H-quinindolin-1-one], which change in vivo at 20 mg/kg [1] is on record?
Answer: Its change in vivo at 20 mg/kg is 17%.

Question: With CC1CCc2nc3c(c(N)c2C1=O)c1ccccc1n3C (racemic) [Example E11, (±) 11-Amino-2,6-dimethyl-1,2,3,4-tetrahydro-6H-quinindolin-1-one] as the molecule, how does the change in vivo at 20 mg/kg [1] read?
Answer: The change in vivo at 20 mg/kg was 52%.

Question: What about the IC50 ([2]; done in the presence of GABA) of the same molecule?
Answer: Its IC50 is 1.2 µM.

Question: For CCC1CCc2nc3c(c(N)c2C1=O)c1ccccc1n3C (racemic) [Example E12, (±) 11-Amino-2-ethyl-6-methyl-1,2,3,4-tetrahydro-6H-quinindolin-1-one], which change in vivo at 20 mg/kg [1] is on record?
Answer: Its change in vivo at 20 mg/kg is 33%.

Question: And the IC50 ([2]; done in the presence of GABA)?
Answer: The IC50 was 1.4 µM.

Question: For C#CCC1CCc2nc3c(c(N)c2C1=O)c1ccccc1n3C (racemic) [Example E14, (±) 11-Amino-6-methyl-2-(2-propynyl)-1,2,3,4-tetrahydro-6H-quinindolin-1-one], which IC50 ([2]; done in the presence of GABA) is on record?
Answer: Its IC50 is 1 µM.

Question: For CC1CC(C)c2nc3c(c(N)c2C1=O)c1ccccc1n3C (racemic) [Example E15, (±) 11-Amino-1,2,3,4-tetrahydro-2,4,6-trimethyl-6H-quinindolin-1-one], which IC50 ([2]; done in the presence of GABA) is on record?
Answer: The IC50 was 3.8 µM.

Question: With Nc1c2c(nc3[nH]c4ccccc4c13)CCCC2=O [Example E1, 11-Amino-1,2,3,4-tetrahydro-6H-quinindolin-1-one] as the molecule, how does the change in vivo at 20 mg/kg [1] read?
Answer: Its change in vivo at 20 mg/kg is 16%.

Question: Which change in vivo at 20 mg/kg [1] does the source give for Cn1c2ccccc2c2c(N)c3c(nc21)CCCC3=O [Example E4, 11-Amino-6-methyl-1,2,3,4-tetrahydro-6H-quinindolin-1-one] here?
Answer: The change in vivo at 20 mg/kg was 29%.

Question: With CCn1c2ccccc2c2c(N)c3c(nc21)CCCC3=O [Example E5, 11-Amino-6-ethyl-1,2,3,4-tetrahydro-6H-quinindolin-1-one] as the molecule, how does the change in vivo at 20 mg/kg [1] read?
Answer: Its change in vivo at 20 mg/kg is 29%.

Question: And the IC50 ([2]; done in the absence of GABA)?
Answer: The IC50 was 7.5 µM.

Question: Which results are given for CCCn1c2ccccc2c2c(N)c3c(nc21)CCCC3=O [Example E6, 11-Amino-6-n-propyl-1,2,3,4-tetrahydro-6H-quinindolin-1-one]?
Answer: change in vivo at 20 mg/kg [1]: 17%; IC50 ([2]; done in the absence of GABA): 3.8 µM

Question: What does the source list for C=CCn1c2ccccc2c2c(N)c3c(nc21)CCCC3=O [Example E7, 11-Amino-6-(2-propenyl)-1,2,3,4-tetrahydro-6H-quinindolin-1-one]?
Answer: change in vivo at 20 mg/kg [1]: 16%; IC50 ([2]; done in the presence of GABA): 1.9 µM

Question: For Cn1c2ccccc2c2c(N)c3c(nc21)CC(C)(C)CC3=O [Example E8, 11-Amino-1,2,3,4-tetrahydro-3,3,6-trimethyl-6H-quinindolin-1-one], which IC50 ([2]; done in the absence of GABA) is on record?
Answer: The IC50 was 4.4 µM.

Question: Which change in vivo at 20 mg/kg [1] does the source give for Cn1c2ccccc2c2c(N)c3c(nc21)CCC(C)(C)C3=O [Example E13, 11-Amino-1,2,3,4-tetrahydro-2,2,6-trimethyl-6H-quinindolin-1-one] here?
Answer: Its change in vivo at 20 mg/kg is 21%.

Question: And the IC50 ([2]; done in the presence of GABA)?
Answer: Its IC50 is 1.7 µM.

Question: What does the source list for Cn1c2ccccc2c2c(N)c3c(nc21)CCCCC3=O [Example E16, 12-Amino-7-methyl-cyclohepta[5,6]pyrido[2,3-b]indol-1-one]?
Answer: change in vivo at 20 mg/kg [1]: 11%; IC50 ([2]; done in the presence of GABA): 3.3 µM

Question: With Cn1c2ccccc2c2c(N)c3c(nc21)CCC3=O [Example E17, 10-Amino-5-methyl-cyclopenta[5,6]pyrido[2,3-b]indol-1-one] as the molecule, how does the change in vivo at 100 mg/kg ([1]; 100 mg/kg p.o.) read?
Answer: The change in vivo at 100 mg/kg was 37%.
